Values joined by “and” are separate entries in the source; they are usually repeats but may differ in a detail not shown here. Equal values may be shown once. Read-outs that look alike come from different tables or passages of the source.
System: Pseudomonas aeruginosa ATCC 9027
Assay: MIC determination by two fold dilutions in 96 well microtiter plates, biocide with and without bio-surfactant
Assay type: cell-based
Conditions: for MIC: Pseudomonas aeruginosa; for microbial growth (absorbance at 660 nm): Table 3 / FIG. 5, triplicate wells
Method: In microbiology, minimum inhibitory concentration (MIC) is defined as the lowest concentration of an antimicrobial that will inhibit the growth of an microorganism after overnight or long incubation. Minimum inhibitory concentrations are important in diagnostic laboratories to confirm resistance of microorganisms to an antimicrobial agent and also to monitor the activity of new antimicrobial agents. A lower MIC is an indication of a better antimicrobial agent, as less is generally needed for acceptable performance. An MIC determination is generally regarded as a basic or standard laboratory measurement of the activity of an antimicrobial agent against an organism.
Biocides tested: • Methylchloroisothiazolinone/Methylisothiazolinone (CMIT/MIT) [also known as KATHON]: • Benzisothiazolinone [BIT] • Methylisothiazolinone [MIT]
Microorganism Used: Pseudomonas aeruginosa ATCC 9027
Biosurfactants tested: • 1. R95D90 (SigmaAldrich) 95% pure rhamnolipid with 90% Di-rhamnolipid dominant • 2. R95M90 (SigmaAldrich) 95% pure rhamnolipid with 90% Mono-rhamnolipid dominant • 3. Natural Saponin
MIC test is a method for determining the Minimum Inhibitory Concentration of a compound required to inhibit or kill the test organisms. MIC50 test is a method for determining the Minimum Inhibitory Concentration of a compound required to inhibit or kill the 50% of the test organisms.
1. The method was based on the MIC (Minimum Inhibitory Concentration) determination by standard two fold dilutions prepared in an appropriate medium and tested in 96 well microtiter plates.
2. A 4× concentration of the active from bio-surfactant stock solution [400 ppm] was prepared to dispense into […].
3. The plates were divided into four sections. Unless otherwise stated, Columns 1-3 received a combination of the bio-surfactant and biocide, Columns 4-6 received biocide alone, and Columns 7-9 received the bio-surfactant alone. Column 10 was left empty, Column 11 was blank medium and Column 12 was medium plus the suspension of the organism.
5. One microtiter plate per test organism and per biocide was used. The dilution scheme is attached as a separate PDF file “Dilution Scheme”.
6. 100 μL of sterile water was aliquoted into to columns 4-6, 11 and 12 with the aid of a 12-channel pipettor add 50 μL in Columns 1-3 and 7-9.
7. Dispensed 50 μL of the 8× stock solution of an appropriate biocide (MIT, BIT or Kathon) in Row A Columns 1-3
8. After mixing with the aid of the multichannel pipettor, 50 μL from the row A wells were transferred to 2nd row [B] wells and after mixing, 50 μL transferred to row C and, the operations were repeated down to row […] and 50 μL from H row (the last row) were discarded.
9. Make 4× stock solution [400 ppm] of each of the bio-surfactants. Dispensed 50 μL of bio-surfactant in 4 different 96 well plates in Columns 7-9 in each of the respective plates.
10. In wells 4-6, 100 μL of individual biocides at 4× concentration were added to the top row A, then serially diluted down to row H while discarding the final 100 μL from row H.
11. Columns 1-3 and 7-9 received 50 μL of 4× bio-surfactant.
12. In a separate tube, prepared bacterial inoculums from 24 hr grown cultures by suspending the cells in 2× Tryptic Soy Broth medium for bacteria.
13. The bacterial inocula were adjusted to 5-6 logs cfu/ml by measuring the turbidity.
14. With an aid of the multichannel pipettor, aliquots of 100 μL organisms were dispensed into each well except for Column 11 in which blank medium was added.
15. Incubated the plates at 35 Celsius degrees for 24 hours for bacterial growth
16. Made visual recordings of positive or negative growth in wells. Measured the absorbance at 660 nm and assessed viability via addition of resazurin dye. Note: for bacterial growth, 10 μL of dye Resazurin stock [250 mg/50 mL] was added to determine the positive and negative growths as determined by color change from blue to pink. […]

Cn1sccc1=O [MIT, 2-methyl-4-isothiazolin-3-one]
MIC (ATCC9027, read-out: MIC w/o BS, biocide alone, Di-Rhamnolipid 95% series): 12.5 µg/mL
MIC (ATCC9027, read-out: MIC w/o BS, biocide alone, Mono + Di Rhamnolipid 95% series): 12.5 µg/mL
MIC (ATCC9027, read-out: MIC w/o BS, biocide alone, Mono-Rhamnolipid 95% series): 12.5 µg/mL
MIC (ATCC9027, read-out: MIC w/o BS, biocide alone, Natural Saponin series): 12.5 µg/mL
MIC (ATCC9027, read-out: MIC with BS, with Di-Rhamnolipid 95% (50 ppm)): 12.5 µg/mL
MIC (ATCC9027, read-out: MIC with BS, with Mono + Di Rhamnolipid 95% (50 ppm)): 6.5 µg/mL
MIC (ATCC9027, read-out: MIC with BS, with Mono-Rhamnolipid 95% (50 ppm)): 6.5 µg/mL
MIC (ATCC9027, read-out: MIC with BS, with Natural Saponin (Purchased), 50 ppm active): > 100 µg/mL

O=c1[nH]sc2ccccc12 [BIT, 1,2-benzisothiazolin-3-one]
MIC (ATCC9027, biocide alone, Di-Rhamnolipid 95% series, read-out: MIC w/o BS): 25 µg/mL
MIC (ATCC9027, biocide alone, Mono + Di Rhamnolipid 95% series, read-out: MIC w/o BS): 25 µg/mL
MIC (ATCC9027, biocide alone, Mono-Rhamnolipid 95% series, read-out: MIC w/o BS): 25 µg/mL
MIC (ATCC9027, biocide alone, Natural Saponin series, read-out: MIC w/o BS): 25 µg/mL
MIC (ATCC9027, with Di-Rhamnolipid 95% (50 ppm), read-out: MIC with BS): 12.5 µg/mL
MIC (ATCC9027, with Mono + Di Rhamnolipid 95% (50 ppm), read-out: MIC with BS): 12.5 µg/mL
MIC (ATCC9027, with Mono-Rhamnolipid 95% (50 ppm), read-out: MIC with BS): 12.5 µg/mL
MIC (ATCC9027, with Natural Saponin (Purchased), 50 ppm active, read-out: MIC with BS): > 200 µg/mL
microbial growth (absorbance at 660 nm) (PPM 1.56): 0.046 and 0.048 and 0.047
microbial growth (absorbance at 660 nm) (PPM 3.13): 0.046 and 0.047 and 0.048
microbial growth (absorbance at 660 nm) (PPM 6.25): 0.047 and 0.048
microbial growth (absorbance at 660 nm) (PPM 50): 1.278 and 1.284 and 1.285
microbial growth (absorbance at 660 nm) (PPM 100): 1.339 and 1.313 and 1.302
microbial growth (absorbance at 660 nm) (PPM 200): 1.371 and 1.379
